Data as given in PMC11078746 (Nature, 2024).

Legend:
3205-HX xenograft = experiment: MSI xenograft model efficacy; format: in vivo, mouse; conditions: colorectal carcinoma, 60 or 120 mg/kg
Method: (§1) All animal studies were conducted in accordance with ethics and procedures covered by permit BS-2275 and BS-1975 issued by the Kantonales Veterinäramt Basel-Stadt and in strict adherence to guidelines of the Eidgenössisches Tierschutzgesetz and the Eidgenössische Tierschutzverordnung, Switzerland. All animal studies were approved by the internal ethics committee. All animals had access to food and water ad libitum and were identified with transponders. They were housed in a specific-pathogen-free facility in IVC racks under a 12 h–12 h light–dark cycle. To establish cell-line-derived xenograft models, 6–7-week-old female athymic nude (Crl:NU(NCr)-Foxn1^nu) or SCID-BEIGE (CB17.Cg-PrkdcscidLystbg-J/Crl) mice from Charles River were engrafted subcutaneously with 5 million tumour cells in HBSS (H6648, Sigma-Aldrich). For SNU-407, Lovo, IM95, RL95.2, Ishikawa and IGROV-1, the cells were concentrated in 50% Matrigel (354234, Corning). Patient-derived xenografts were induced and expanded by transplantation as previously described. […] For the efficacy experiment, mice were randomized into groups (n = 5–6) for a mean tumour size of 100–150 mm^3. […] Blood samples were collected on day 7 and 91. […] Tumour responses are reported with the measures of tumour volumes from the treatment start. […] Animals were randomized (n = 3) and tumour samples were collected at 0, 1, 4, 8 and 24 h on the first day and then collected 4 h after the last treatment on day 3, 8, 10, 14 (including a 24 h timepoint), 17 and 21. Tumours were excised, weighed, either frozen in liquid nitrogen and cryogenic dry pulverized with the CryoPrep system (model CP-02, Covaris) or processed to FFPE after fixation. […] On day 12, blood samples were collected for PK analysis. On the last day (3 h after the last treatment), tumours were excised, weighed, frozen in liquid nitrogen and cryogenic dry pulverized for PD analysis.

OVK18 xenograft = experiment: MSI xenograft model efficacy; format: in vivo, mouse; conditions: OVK18, Ovarian carcinoma; 60 or 120 mg/kg
Method: as §1

LS411N xenograft = experiment: MSI xenograft model efficacy; format: in vivo, mouse; conditions: colorectal carcinoma, 60 or 120 mg/kg
Method: as §1

TOV21G xenograft = experiment: MSI xenograft model efficacy; format: in vivo, mouse; conditions: Ovarian carcinoma, 60 or 120 mg/kg
Method: as §1

5148-HX xenograft = experiment: MSI xenograft model efficacy; format: in vivo, mouse; conditions: Gastric carcinoma, 60 or 120 mg/kg
Method: as §1

IM95 = experiment: 4 day proliferation assay (CellTiter-Glo); conditions: Homo sapiens, IM95, 96 h, read-out: 4 day assay GI50

For `CCc1c(N2CCN(C(=O)c3ncnc(C)c3O)CC2)c(=O)n2nc(C3=CCOCC3)nc2n1CC(=O)Nc1ccc(C(F)(F)F)cc1Cl` [HRO761], the Best average response (3205-HX xenograft) was 400, the Best average response (OVK18 xenograft) was 500 and the Best average response (LS411N xenograft) was -100. It also gave a Best average response (TOV21G xenograft) of 190, a Best average response (5148-HX xenograft) of -36 and a GI50 (IM95) of 2010 nM.
